Among the data in patent US20200108115A1, “MEDICINAL COMPOSITION DERIVED FROM MULTIPLE PLANT SOURCES FOR GASTROINTESTINAL DISORDER” (priority 2017, published 2020) are MIC values, retold here.

In brackets after ≈: the same amount, converted by molar mass.

Holding throughout (assay): MIC by resazurin micro-titre method
Holding throughout (format): cell-based

In experiment [1] the test system is Bacteroides fragilis (BB3). The following applies: beneficial, 37° C., 18-24 h.
In experiment [2] the test system is Shigella dysenteriae (P7). The following applies: read-out: MIC value.
The test system of experiment [3] is Faecalibacterium prausnitzii (BB5). The following applies: beneficial, 37° C., 18-24 h.
In experiment [4] the test system is Helicobacter pylori (P6). The following applies: read-out: MIC value.
In experiment [5] the test system is Klebsiella oxytoca (P4). The note with it: 37° C., 18-24 h.
Experiment [6] concerns Salmonella typhimurium (P3). The following applies: Salmonella enterica, 37° C., 18-24 h.
Experiment [7] has as its system Streptococcus thermophilus (BB2). The note with it: beneficial, 37° C., 18-24 h.
Experiment [8] deals with Vibrio cholera (P5). The following applies: Vibrio cholerae, read-out: MIC value.

As usually defined, the MIC is the least concentration at which growth counts as inhibited. `O=C(O)c1cn(C2CC2)c2cc(N3CCNCC3)c(F)cc2c1=O` [Ciprofloxacin, ciprofloxacin]: the MIC is 62.5 µg/mL (≈ 189 µM) in experiment [1]; 15.1 µg/mL (≈ 45.6 µM) in experiment [2]; 31.2 µg/mL (≈ 94.3 µM) in experiment [3]; 15.1 µg/mL (≈ 45.6 µM) in experiment [4]; 500 µg/mL (≈ 1510 µM) in experiment [5]; 1000 µg/mL (≈ 3020 µM) in experiment [6]. For the same molecule, the results for the MIC in experiment [7] and in experiment [8] were 31.2 µg/mL (≈ 94.3 µM) and 125 µg/mL (≈ 377 µM), respectively.
